Test results reported in patent publication US5324832A, “Muscarinic antagonists” (priority 1991, dated 1994).
Entries after “also recorded” stand apart in the source; their conditions may differ. One block for each compound: values may come before it.

Columns and labels:
[1] = tested on: m1 through m4 muscarinic receptors; assay: Displacement of [3H]NMS from muscarinic receptors (m1-m4), subtype not singled out; assay type: binding; details: for displacement of [3H]NMS from the receptor / affinity / potency at muscarinic receptors / receptor subtype selectivity: in words; for affinity / potency at muscarinic receptors: qualitative; for receptor subtype selectivity: m1 versus m2 / among subtypes; for Ki: in the vicinity of, subtype not stated, read-out: Ki, inhibition of [3H]NMS binding
Source text: (§1) The analogues were screened in binding assays using membranes from cells or tissues containing primarily single subtypes of m1 through m4 muscarinic receptors. Transfected A9L cells were used as a source of homogeneous populations of m1, m3, and m4 receptors. See Jones, S. V.; Barker, J. L.; Buckley, N. J.; Bonner, T. I; Brann, M. R., Mol. Pharmacol., 1988, 34, 421, which is specifically incorporated by reference herein. Rat heart tissue was the source of m2 muscarinic receptors.
(§2) A crude membrane fraction was obtained as follows. Confluent cultures were rinsed three times with phosphate-buffered saline, and lysed in a solution of 2 mM Tris-HCl (pH 7.1) and 1 mM EDTA for 30 min at 2° C. The cells were harvested by scraping and homogenized on a Polytron (10 sec, 75% mix).
(§3) Nuclei were removed in a low speed centrifugation (400 × g, 5 min) and a crude membrane preparation was obtained by centrifugation of the supernatant at 50,000 × g for 20 min. The resulting pellet was resuspended in the lysis buffer and recentrifuged at 50,000 × g for 20 min. Membranes were stored frozen at -70° C. until needed.
(§4) The total volume was 1 mL.
(§5) The incubation was terminated by rapid filtration over GF/B filters using a Brandel cell harvester. The filters were washed three times with ice-cold 0.9% NaCl, equilibrated in scintillation counting fluid and counted on a Beckmann LS 5801 liquid scintillation counter at 47% efficiency.
(§6) It was routinely subtracted from the total counts.

m1 muscarinic receptors = molecular target: T1, m1 muscarinic receptors (Rattus norvegicus, UniProt P08482); assay: Inhibition of [3H]NMS binding, membranes of transfected A9L cells expressing m1 receptors; set-up: expressed in transfected cells; host or cells: A9L cells (obtained from Dr. M. Brann, NIH); details: for factor by which 29a and 32d differ in affinity at m1 receptors: 29a versus 32d
T1 sequence (P08482 1-460): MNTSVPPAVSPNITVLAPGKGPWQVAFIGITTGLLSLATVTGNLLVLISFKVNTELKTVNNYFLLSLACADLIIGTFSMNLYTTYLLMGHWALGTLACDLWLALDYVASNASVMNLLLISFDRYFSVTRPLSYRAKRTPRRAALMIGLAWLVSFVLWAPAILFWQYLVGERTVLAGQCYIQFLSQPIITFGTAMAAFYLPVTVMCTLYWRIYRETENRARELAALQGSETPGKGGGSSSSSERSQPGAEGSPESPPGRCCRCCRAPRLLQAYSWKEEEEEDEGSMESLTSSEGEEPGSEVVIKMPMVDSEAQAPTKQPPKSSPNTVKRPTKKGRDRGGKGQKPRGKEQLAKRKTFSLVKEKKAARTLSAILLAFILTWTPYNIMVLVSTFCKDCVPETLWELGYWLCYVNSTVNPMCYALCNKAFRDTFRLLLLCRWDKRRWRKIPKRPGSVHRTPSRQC
Procedure: The analogues were screened in binding assays using membranes from cells or tissues containing primarily single subtypes of m1 through m4 muscarinic receptors. Transfected A9L cells were used as a source of homogeneous populations of m1, m3, and m4 receptors. […] Rat heart tissue was the source of m2 muscarinic receptors.
A crude membrane fraction was obtained as follows. Confluent cultures were rinsed three times with phosphate-buffered saline, and lysed in a solution of 2 mM Tris-HCl (pH 7.1) and 1 mM EDTA for 30 min at 2° C.
as §3, §4
The incubation was terminated by rapid filtration over GF/B filters using a Brandel cell harvester.
as §6

m2 muscarinic receptors = molecular target: T2, m2 muscarinic receptors (Rattus norvegicus, UniProt P10980); assay: Inhibition of [3H]NMS binding, membranes from rat heart (m2 receptors); details: for factor by which 29a and 32d differ in affinity at m2 receptors: 29a versus 32d
T2 construct: Rat heart tissue was the source of m2 muscarinic receptors; from tissue; host or cells: rat heart
T2 sequence (P10980 1-466): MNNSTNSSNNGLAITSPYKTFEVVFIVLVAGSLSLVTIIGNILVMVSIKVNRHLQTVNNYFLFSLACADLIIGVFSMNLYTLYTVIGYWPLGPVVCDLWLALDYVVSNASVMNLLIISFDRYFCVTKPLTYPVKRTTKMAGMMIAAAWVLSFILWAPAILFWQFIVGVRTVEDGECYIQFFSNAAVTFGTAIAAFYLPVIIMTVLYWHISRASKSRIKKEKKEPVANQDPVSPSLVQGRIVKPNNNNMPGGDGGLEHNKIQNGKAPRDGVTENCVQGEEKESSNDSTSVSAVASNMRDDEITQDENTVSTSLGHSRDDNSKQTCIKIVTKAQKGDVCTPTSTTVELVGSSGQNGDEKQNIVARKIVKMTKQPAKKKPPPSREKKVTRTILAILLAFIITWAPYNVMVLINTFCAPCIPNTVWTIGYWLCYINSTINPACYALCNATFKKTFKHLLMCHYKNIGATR
Source text: as §1, §2, §3, §4, §5, §6

muscarinic receptors = details: in words; cited from earlier work
[2] = in words, versus propargyl derivative 22

Kd (m2 muscarinic receptors; m2): < 20 nM
Kd (m1 muscarinic receptors; m1): < 20 nM
receptor subtype selectivity [1]: non-selective
Compound: NCCCCCCCCCCN1CCN(CC(=O)N2c3ccccc3C(=O)Nc3cccnc32)CC1 [Compound 34h, 5,11-Dihydro-11-[(4-[10-aminodecyl]-1-piperazinyl)acetyl]-6H-pyrido[2,3-b][1,4]-benzodiazepine-6-one]
affinity / potency at muscarinic receptors [1]: higher affinities than the corresponding derivatives with the small neutral acetylamino terminal group (35g and 35h); also recorded: most potent in the series of primary amines

Ki [1]: ~1000 nM
Compound: O=C1Nc2cccnc2N(C(=O)CN2CCN(CCO)CC2)c2ccccc21 [Compound 25, 5,11-Dihydro-11-[(4-[2-hydroxyethyl]-1-piperazinyl)acetyl]-6H-pyrido[2,3-b][1,4]benzodiazepine-6-one]

Ki [1]: ~1000 nM
Compound: NCCN1CCN(CC(=O)N2c3ccccc3C(=O)Nc3cccnc32)CC1 [Compound 27, 5,11-Dihydro-11-[(4-[2-aminoethyl]-1-piperazinyl)acetyl]-6H-pyrido[2,3-b][1,4]benzodiazepine-6-one]

receptor subtype selectivity [1]: non-selective for m1 versus m2 receptors
Compound: O=C1Nc2cccnc2N(C(=O)CN2CCN(Cc3ccccc3)CC2)c2ccccc21 [Compound 23, 5,11-Dihydro-11-[(4-benzyl-1-piperazinyl)acetyl]-6H-pyrido[2,3-b] [1,4]benzodiazepine-6-one]
affinity at m2 muscarinic receptors relative to 22 (m2 muscarinic receptors; [2]): greater affinity at m1 and m2 muscarinic receptors
affinity at m1 muscarinic receptors relative to 22 (m1 muscarinic receptors; [2]): greater affinity at m1 and m2 muscarinic receptors

factor by which 29a and 32d differ in affinity at m2 receptors (m2 muscarinic receptors; m2): 280
factor by which 29a and 32d differ in affinity at m1 receptors (m1 muscarinic receptors; m1): 360
Compound: CC(C)(C)OC(=O)NCCCCCCN1CCN(CC(=O)N2c3ccccc3C(=O)Nc3cccnc32)CC1 [Compound 32d]
affinity / potency at muscarinic receptors [1]: more potent than the corresponding free amines (34)

Ki [1]: ~1000 nM
Compound: CC(=O)NCCN1CCN(CC(=O)N2c3ccccc3C(=O)Nc3cccnc32)CC1 [Compound 28]

selectivity ratio m1 versus m2 receptors (m1 muscarinic receptors; in favor of m1 versus m2 receptors): 5 fold
Compound: NCCCCCN1CCN(CC(=O)N2c3ccccc3C(=O)Nc3cccnc32)CC1 [Compound 34c]

Ki [1]: ~1000 nM
receptor subtype selectivity [1]: non-selective
Compound: C#CCN1CCN(CC(=O)N2c3ccccc3C(=O)Nc3cccnc32)CC1 [Compound 22, 5,11-Dihydro-11-[(4-propargyl-1-piperazinyl)acetyl]-6H-pyrido[2,3-b][1,4]benzodiazepine-6-one]

Second part, the compound before the results:

Compound: CN1CCN(CC(=O)N2c3cc(CO)ccc3C(=O)Nc3cccnc32)CC1 [Compound 16, 5,11-Dihydro-9-hydroxymethyl-11-[(4-methyl-1-piperazinyl)acetyl]-6H-pyrido[2,3-b] [1,4]benzodiazepine-6-one]
displacement of [3H]NMS from the receptor [1]: detectable displacement of [^3 H]NMS

Compound: Cc1scc2c1N(C(=O)CN1CCN(CCCCCCCCCCN)CC1)c1ccccc1NC2=O [Compound 40, n=10, 4,9-Dihydro-3-methyl-4-[[4-(10-aminodecyl)-1-piperazinyl]-acetyl]-10H-thieno[3,4-b][1,5]benzodiazepin-10-one]
Ki (m1 muscarinic receptors; radioligand binding assays, read-out: affinity for m1 receptors (Ki)): 2.39 nM

Compound: NCCCCCCCCCN1CCN(CC(=O)N2c3ccccc3C(=O)Nc3cccnc32)CC1 [Compound 34g]
affinity / potency at muscarinic receptors [1]: higher affinities than the corresponding derivatives with the small neutral acetylamino terminal group (35g and 35h)

Compound: CCN1C(=O)c2ccccc2N(C(=O)CN2CCN(C)CC2)c2ncccc21 [Compound 17a, 5-Ethyl-11-hydro-[(4-methyl-1-piperazinyl)acetyl]-6H-pyrido[2,3-b][1,4]-benzodiazepine-6-one]
affinity / potency at muscarinic receptors [1]: low affinity

Compound: Cc1scc2c1N(C(=O)CN1CCN(C)CC1)c1ccccc1NC2=O [telenzepine]
selectivity ratio / factor for m1 receptors (m1 muscarinic receptors; m1 versus m2 receptors): 25
muscarinic receptor selectivity (literature) (muscarinic receptors): preserve selectivity for m1 receptors
potency as muscarinic antagonist relative to pirenzepine (literature) (muscarinic receptors): more potent antagonist

Compound: CCN(CC)CCCCC1CCN(CC(=O)N2c3ccccc3C(=O)Nc3cccnc32)CC1 [AQ-RA 741]
muscarinic receptor selectivity (literature) (muscarinic receptors): selective for M2 receptors

Compound: COc1ccccc1CNCCCCCCNCCCCCCCCNCCCCCCNCc1ccccc1OC [methoctramine]
muscarinic receptor selectivity (literature) (muscarinic receptors): m2-selective muscarinic antagonist

Compound: CN1CCN(CC(=O)N2c3ccccc3C(=O)N(CCCCCCC#N)c3cccnc32)CC1 [Compound 17b]
affinity / potency at muscarinic receptors [1]: low affinity

Compound: CC(C)(C)OC(=O)NCCC(=O)NCCN1CCN(CC(=O)N2c3ccccc3C(=O)Nc3cccnc32)CC1 [Compound 29a]
factor by which 29a and 32d differ in affinity at m2 receptors (m2 muscarinic receptors; m2): 280
factor by which 29a and 32d differ in affinity at m1 receptors (m1 muscarinic receptors; m1): 360
affinity / potency at muscarinic receptors [1]: inactivity

Compound: CSc1ccc2c(c1)C(=O)Nc1cccnc1N2C(=O)CN1CCN(C)CC1 [Compound 11a]
displacement of [3H]NMS from the receptor [1]: detectable displacement of [^3 H]NMS
